From patent publication US9000045B2, “CETP activity inhibitors” (Japan Tobacco Inc., priority 1997, dated 2015) come the findings set out here.

SMILES strings stand for the structures.

For this test, the target named is T1, CETP (Homo sapiens, UniProt P11597).
T1 sequence (P11597 18-493): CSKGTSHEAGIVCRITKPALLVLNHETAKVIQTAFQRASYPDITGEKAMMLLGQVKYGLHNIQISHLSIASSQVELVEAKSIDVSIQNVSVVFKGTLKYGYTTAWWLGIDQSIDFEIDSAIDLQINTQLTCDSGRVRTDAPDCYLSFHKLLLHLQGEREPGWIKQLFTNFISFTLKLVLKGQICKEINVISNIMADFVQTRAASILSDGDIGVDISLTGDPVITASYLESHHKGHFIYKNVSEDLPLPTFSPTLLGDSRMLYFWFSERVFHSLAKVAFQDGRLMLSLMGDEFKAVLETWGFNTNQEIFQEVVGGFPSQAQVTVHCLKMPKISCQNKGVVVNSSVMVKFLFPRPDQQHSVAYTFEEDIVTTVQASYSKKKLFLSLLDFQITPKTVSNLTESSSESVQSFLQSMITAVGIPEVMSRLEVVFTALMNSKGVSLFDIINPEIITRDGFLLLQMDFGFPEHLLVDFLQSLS
In words: In vitro CETP activity inhibitory effect in whole plasma. Also noted: Plasma containing [^3H]CE-HDL3 (600,000 dpm/ml) was prepared by adding donor lipoprotein obtained in the above (1) to plasma from healthy subjects; from tissue; host or cells: whole plasma of healthy subjects. Type of test: biochemical. The settings on record: plasma from healthy subjects containing [3H]CE-HDL3, incubated 4 hours at 37° C.; read-out: CETP activity inhibition in whole plasma IC50. The protocol:
The fraction thus obtained was dialyzed against a PBS solution [10 mM Na2HPO4/10 mM NaH2PO4/0.15 M NaCl/1 mM EDTA (pH 7.4)]. Then, tritium-labeled cholesterol (10 nM) (50.3 Ci/mM) was dissolved in 95% ethanol and added gradually to the above HDL3 fraction under stirring. The solution was incubated for 18 hours at 37° C. […] After incubation, KBr was added and specific gravity was adjusted to d=1.21 g/ml. […] A sample solution was prepared using a 1:1 solution of N-methylpyrrolidone and polyethyleneglycol 400 as a solvent. […] Based on the inhibition rate (%) of CETP activity, IC50 value of each sample was calculated.
Usually IC50 stands for the concentration at which inhibition is half-maximal. With `O=C(Nc1ccccc1SSc1ccccc1NC(=O)c1ccncc1)c1ccncc1` [Example 1-7], the IC50 turned out to be 24 µM.
Turning to `CC(C)CCC1(C(=O)Nc2ccccc2SC(=O)C2CCCCC2)CCCCC1` [Example 43], the IC50 stood at 49 µM.
Turning to `CC(C)CCC1(C(=O)Nc2ccccc2SC(=O)C(c2ccccc2)c2ccccc2)CCCCC1` [Example 25-47], the IC50 is 29 µM.
The value for `CC(C)CCC1(C(=O)Nc2cc(Cl)c(Cl)cc2S)CCCC1` [Example 21] was 9 µM; that for `CC(C)(C)C(=O)Sc1cc(Cl)c(Cl)cc1NC(=O)[C@H]1CC[C@H](C(C)(C)C)CC1` [Example 66-27] was 9 µM; that for `CC(C)(C)C(=O)Sc1cc(Cl)c(Cl)cc1NC(=O)[C@]12CCCC[C@@H]1CCC2` [Example 66-23] was 13 µM.
The value for `COC(=O)Sc1ccccc1NC(=O)C1(CCC(C)C)CCCCC1` [Example 54] was 12 µM; that for `CC1(C(=O)Nc2cc(F)ccc2S)CCCCC1` [Example 19-1] was 19 µM.
Regarding `CC(C)CCC1(C(=O)Nc2cc(Cl)c(Cl)cc2SSc2cc(Cl)c(Cl)cc2NC(=O)C2(CCC(C)C)CCCCC2)CCCCC1` [Example 82, bis-[4,5-dichloro-2-(1-isopentylcyclohexane-carbonylamino)phenyl]disulfide], the concentration for half-maximal inhibition (IC50) was found to be 7 µM.
Then `CC1(C(=O)Nc2ccccc2SC(=O)Cc2ccc(Cl)cc2)CCCCC1` [Example 25-21], with 28 µM; and `CC(C)CCC1(C(=O)Nc2ccccc2SC(=O)c2cccnc2)CCCCC1` [Example 35], with 4 µM.
Then `CC(C)(C)C(=O)Sc1cc(Cl)c(Cl)cc1NC(=O)C1(C2CC2)CCCCC1` [Example 67], with 9 µM; and `CCCC1(C(=O)Nc2cc(Cl)c(Cl)cc2SC(=O)C(C)(C)C)CCCCC1` [Example 66-16], with 8 µM.
The value for `CC(C)CC(CC(C)C)C(=O)Nc1cc(Cl)c(Cl)cc1SC(=O)C(C)(C)C` [Example 66-14] was 11 µM; that for `CC(C)CCC1(C(=O)Nc2ccccc2SSCC2CCCO2)CCCCC1` (centres unmarked) [Example 83, 2-tetrahydrofurylmethyl 2-(1-isopentylcyclohexane-carbonylamino)phenyl disulfide] was 5 µM; that for `CC(C)CCC1(C(=O)Nc2cc(Cl)c(Cl)cc2SC(=O)c2cccnc2)CCCCC1` [Example 25-77] was 7 µM.
For `CC(C)(C)C(=O)Sc1ccc(C(F)(F)F)cc1NC(=O)C1(C)CCCCC1` [Example 25-67], the half-maximal inhibitory concentration (IC50) was 40 µM.
With `CC1(C(=O)Nc2ccccc2SC(=O)[C@H](NC(=O)C2(C)CCCCC2)c2ccccc2)CCCCC1` [Example 25-41], the IC50 was 26 µM.
As for `CC(C)(C)C(=O)Nc1ccccc1SC(=O)C1CCCCC1` [Example 25-4], the IC50 amounted to 32 µM.
The value for `CCCC1(C(=O)Nc2ccccc2S)CCCCC1` [Example 16] was 8 µM; that for `CC(C)CCC1(C(=O)Nc2cc(Cl)c(Cl)cc2SC(=O)C(C)(C)C)CCCCCC1` [Example 72] was 74 µM.
For `CC1(C(=O)Nc2ccccc2SC(=O)CC2CCCCC2)CCCCC1` [Example 25-16], the IC50 amounted to 41 µM.
Then `CC(C)(C)C(=O)Sc1cc(Cl)c(Cl)cc1NC(=O)C1CCC(C(C)(C)C)CC1` (centres unmarked) [Example 66-26], with 8 µM.
Then `CC1(C(=O)Nc2ccccc2SC(=O)Cc2ccc(-c3ccccc3)cc2)CCCCC1` [Example 25-26], with 22 µM; and `CC(C)(C)C(=O)Nc1cc(C(F)(F)F)ccc1SC(=O)C(C)(C)C` [Example 57], with 41 µM.
The value for `CC1(C(=O)Nc2cc(Cl)c(Cl)cc2SC(=O)[C@@H](N)Cc2ccccc2)CCCCC1` [Example 66-12] was 17 µM; that for `CC1(C(=O)Nc2ccccc2SSc2ccccc2NC(=O)C2(C)CCCCC2)CCCCC1` [Example 6] was 5 µM; that for `CC(C)CCC1(C(=O)Nc2ccccc2SSc2ccccc2NC(=O)C2(CCC(C)C)CCCC2)CCCC1` [Example 7] was 2 µM.
As for `CC(C)(C)C1CCC(C(=O)Nc2ccccc2SSc2ccccc2NC(=O)C2CCC(C(C)(C)C)CC2)CC1` (centres unmarked) [Example 1-13], the IC50 turned out to be 18 µM.
Regarding `CC(C)(C)C(=O)Sc1cc(Cl)c(Cl)cc1NC(=O)[C@H]1CC[C@H](C2CCCCC2)CC1` [Example 66-31], the IC50 came to 27 µM.
`CC(C)CC(C(=O)Nc1cc(Cl)c(Cl)cc1SC(=O)C(C)(C)C)C1CCCCC1` (centres unmarked) [Example 66-40]: the IC50 is 42 µM.
In the case of `CC(C)C1(C(=O)Nc2cc(Cl)c(Cl)cc2SC(=O)C(C)(C)C)CCCCC1` [Example 66, S-[4,5-dichloro-2-(1-isopropylcyclohexanecarbonyl-amino)phenyl]2,2-dimethylthiopropionate], the IC50 worked out at 7 µM.
For the compound `CC(C)(C)C(=O)Nc1ccccc1CC(=O)Sc1ccccc1NC(=O)C1(C)CCCCC1` [Example 25-18], the IC50 was found to be 19 µM.
As to `CC(C)(C)C(=O)Sc1cc(Cl)c(Cl)cc1NC(=O)[C@@]12CCCC[C@@H]1CCC2` [Example 66-24], the half-inhibitory concentration (IC50) is 12 µM.
In the case of `COCC(=O)Sc1cc(Cl)c(Cl)cc1NC(=O)C1(CCC(C)C)CCCCC1` [Example 25-86], the 50% inhibitory concentration (IC50) turned out to be 10 µM.
On to `CC(C)(C)C(=O)Nc1ccccc1SC(=O)Cc1cccc([N+](=O)[O-])c1` [Example 25-8], for which the half-inhibitory concentration (IC50) turned out to be 25 µM.
The value for `CC(C)(C)C(=O)Sc1cc(Cl)c(Cl)cc1NC(=O)C(C)(C)C1CCCCC1` [Example 66-41] was 25 µM; that for `CC(=O)N1CCC[C@H]1C(=O)Sc1ccccc1NC(=O)C1(C)CCCCC1` [Example 25-37] was 24 µM; that for `CC(C)(C)C(=O)Sc1cc(Cl)c(Cl)cc1NC(=O)[C@H]1CC[C@H](C)CC1` [Example 66-30] was 19 µM.
Then `CC(C)(C)C(=O)Nc1ccccc1CC(=O)Sc1ccccc1NC(=O)C(C)(C)C` [Example 25-13], with 28 µM; and `CC(C)CCC1(C(=O)Nc2cc(Cl)c(Cl)cc2SC(=O)Cc2ccccc2)CCCCC1` [Example 25-83], with 18 µM; and `CCCCC(=O)Nc1ccccc1SSc1ccccc1NC(=O)CCCC` [Example 1-2], with 25 µM.
Regarding `CC1(C(=O)Nc2ccccc2SC(=O)c2ccccc2)CCCCC1` [Example 32], the IC50 worked out at 32 µM.
The value for `CC(C)CCC1(C(=O)Nc2cc(Cl)c(Cl)cc2SC(=O)C(C)(C)C)CCCC1` [Example 51] was 16 µM; that for `CC(C)CCC1(C(=O)Nc2cc(Cl)c(Cl)cc2SSc2cc(Cl)c(Cl)cc2NC(=O)C2(CCC(C)C)CCCC2)CCCC1` [Example 82-1] was 5 µM; that for `CC(C)(C)C(=O)Sc1cc(Cl)c(Cl)cc1NC(=O)C1C(C)(C)C1(C)C` [Example 66-17] was 18 µM.
Regarding `COC(=O)Sc1cc(Cl)c(Cl)cc1NC(=O)C1(CCC(C)C)CCCCC1` [Example 25-91], the IC50 amounted to 22 µM.
As for `CCC1(C(=O)Nc2ccccc2S)CCCCC1` [Example 15], the IC50 is 12 µM.
Then `CC1(C(=O)Nc2ccccc2SC(=O)c2cccnc2)CCCCC1` [Example 25-27], with 21 µM; and `CC(C)CCC1(C(=O)Nc2cc(Cl)c(Cl)cc2SC(=O)NC(C)C)CCCCC1` [Example 25-103], with 12 µM; and `CC(C)CCC1(C(=O)Nc2cc(Cl)c(Cl)cc2SC(=O)C2CCN(C)CC2)CCCCC1` [Example 25-78], with 11 µM.
Turning to `CC(C)C(=O)Nc1ccccc1SSc1ccccc1NC(=O)C(C)C` [Example 1-1], the IC50 amounted to 41 µM.
Then `CC(C)(C)C(=O)Nc1ccccc1SC(=O)CCCc1ccccc1` [Example 25-12], with 33 µM; and `CC(C)(C)C(=O)Nc1ccccc1SC(=O)Sc1ccccc1NC(=O)C(C)(C)C` [Example 25-94], with 18 µM.
Then `CC1(C(=O)Nc2ccccc2SC(=O)Cc2ccc3ccccc3c2)CCCCC1` [Example 25-25], with 24 µM.
For `CCCCC1(C(=O)Nc2ccccc2S)CCCCC1` [Example 17], the IC50 is 8 µM.
With `CCNC(=O)Sc1cc(Cl)c(Cl)cc1NC(=O)C1(CCC(C)C)CCCCC1` [Example 25-104], the IC50 was found to be 9 µM.
Consider `CC(C)(C)C(=O)Sc1cc(Cl)c(Cl)cc1NC(=O)[C@]12CCCC[C@@H]1CCCC2` [Example 66-22], for which the IC50 amounted to 19 µM.
The value for `CC(=O)NCC(=O)Sc1ccccc1NC(=O)C1(C)CCCCC1` [Example 25-33] was 18 µM.
For `O=C(Nc1ccccc1SSc1ccccc1NC(=O)c1cccs1)c1cccs1` [Example 4], the IC50 stood at 175 µM.
As for `CC(C)CCC1(C(=O)Nc2cc(Cl)c(Cl)cc2SC(=O)CN(C)C)CCCCC1` [Example 25-80], the IC50 amounted to 5 µM.
Regarding `CC1(C(=O)Nc2ccccc2S)CCCCC1` [Example 12], the IC50 is 17 µM.
